Assay results reported in patent US4959368A, “Therapeutic agent for neurological diseases” (Mitsui Petrochemical Industries Ltd., priority 1986, dated 1990).

Experiments:
[1] = test system: human neuroblastoma cell line GOTO; experiment: Activity on neuroblastoma cell line GOTO (cell number, number and length of neurites); assay type: cell-based; conditions: for Number of cells (mean ± S.E.): control 12.30 ± 1.48
Summary of the method: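 GOTO cells were cultured 1–2 days at 37 °C, 5% CO2, then switched to serum-free RPMI/MEM (1:1) with compounds in PBS at various concentrations for 24 h. Living cells were counted by erythrosine exclusion (3–6 dishes); neurite number and length per cell were measured from photographs.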

[2] = test system: rats with crushed sciatic nerves; experiment: Curative effect on rats with crushed sciatic nerves; assay type: in vivo, rat (male Wistar); conditions: for Rate of recovery in muscle weight: soleus muscle, saline 51.8 ± 1.2
Description: Curative effect on rats with crushed sciatic nerves:
The curing effect of the compound (I) of the invention was tested on rats having crushed scietic nerves as a model of peripheral nervous disorder using (1) a change in the action of the hind paw with the crushed sciatic nerves and (2) a change in the weight of the muscle as an index of the course of degeneration and regeneartion of peripheral nerves.
In the experiment, male Wistar rats (6 weeks old), seven per group, were used. The sciatic nerves were crushed by a method similar to the method of Yamatsu et al. (see Kiyomi Yamatsu, Takenori Kaneko, Akifumi Kitahara and Isao Ohkawa, Journal of Japanese Pharmacological Society, 72, 259-268 (1976) and the method of Hasegawa et al. (see Kazuo Hasegawa, Naoji Mikuni and Yutaka Sakai, Journal of Japanese Pharmacological Society, 74, 721-734 (1978). Specifically, under anesthesia with pentobarbital (40 mg/kg, i.p.), the left side sciatic nerve was exposed at the femur and that site of the exposed scietic nerve which was 5 mm to the center from the branched part between the N. tibialis and the N. suralis was crushed using a modified artery, klomme, having a width of 2 mm and a gap of 0.1 mm. After the operation, the rats were assigned to the test groups at random.
Compound No. 408 was selected as the compound (I) of the invention and intraperitoneally administered to the rats once a day from the day of operation to the 22nd day. A group to which mecobalamin (made by Gedeon Richter Ltd.) was administered and a group to which 0.9% saline was administered were used as controls. The following items were measured with the lapse of time (on the 1st, 4th, 7th, 10th, 14th, 17th, 21st, and 23rd days after the crushing of the scietic nerves).
(1) Change in the action of the side of the hind paw with the crushed scietic nerve:
By a method similar to the method of Hasegawa [Hasegawa, K., Experientia, 34, 750-751 (1978)], the distance between the first and fifth digits of the hind paw was measured.
The ratio of the measured distance to the normal distance was calculated and expressed in percentage (%).
(2) Change in the weight of muscle
It is known that removal of a nerve or its disorder causes atrophy of the muscle which is under its control, and the atrophy is gradually cured by re-control by the nerve. For this reason, a change in the weight of the muscle, which is quantitative, was selected as an index. Twenty-three days after the operation, the soleus muscles of both sides of paws were extracted under anesthesia with pentobarbital, and their weights were measured. The ratio of the weight of the soleus muscle on the crushed side to that of normal side was calculated and expressed in percentage (%).

[3] = test system: mouse neuroblastoma cell line neuro-2a; experiment: Activity on cell line neuro-2a (simple method); assay type: cell-based
Summary of the method: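 Cells (2–6×10^4 per dish) grown 1–2 days at 37 °C, then switched to serum-free RPMI/MEM with compound in PBS for 24 h. Live cells counted by erythrosine exclusion; score is fraction of cells bearing neurites at least as long as the cell's long diameter, from photos.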

[4] = Table 1 Run No. 2, 1 μg/ml, control 2.06 ± 0.60
[5] = Table 1 Run No. 2, 1 μg/ml, control 55.00 ± 37.26
[6] = Table 1 Run No. 2, 10 μg/ml, control 2.06 ± 0.60
[7] = Table 1 Run No. 2, 10 μg/ml, control 55.00 ± 37.26
[8] = Table 2 neuro-2a Run No. 2, 1 μg/ml, control 7.9
[9] = Table 2 neuro-2a Run No. 2, 10 μg/ml, control 7.9

Structure (SMILES): CN1C(=O)Cc2cnc(N3CCNCC3)nc21 [Compound 408]
- Number of neurites/cell (mean ± S.D.) [1, 4]: 2.11 ± 0.65 neurites/cell
- Number of cells (mean ± S.E.) ([1]; Table 1 Run No. 2, 1 μg/ml): 17.52 ± 2.57 × 10^4 /dish
- Length of neurites (mean ± S.D.) [1, 5]: 66.09 ± 36.49 μm/cell
- Number of neurites/cell (mean ± S.D.) [1, 6]: 2.17 ± 0.66 neurites/cell
- Number of cells (mean ± S.E.) ([1]; Table 1 Run No. 2, 10 μg/ml): 13.07 ± 0.80 × 10^4 /dish
- Length of neurites (mean ± S.D.) [1, 7]: 69.33 ± 40.68 μm/cell
- Rate of recovery of the interdigit distance ([2]; 21st day, 3 mg/kg ip once a day, saline 62.0 ± 2.4): 70.9 ± 3.5%
- Rate of recovery of the interdigit distance ([2]; 21st day, 10 mg/kg ip once a day, saline 62.0 ± 2.4, *P < 0.05): 74.9 ± 3.1%
- Rate of recovery of the interdigit distance ([2]; 21st day, 30 mg/kg ip once a day, saline 62.0 ± 2.4, ***P < 0.001): 79.6 ± 2.9%
- Rate of recovery of the interdigit distance ([2]; 21st day, 100 mg/kg ip once a day, saline 62.0 ± 2.4): 68.9 ± 4.3%
- Rate of recovery of the interdigit distance ([2]; 23rd day, 3 mg/kg ip once a day, saline 71.1 ± 3.4): 80.1 ± 3.6%
- Rate of recovery of the interdigit distance ([2]; 23rd day, 10 mg/kg ip once a day, saline 71.1 ± 3.4, *P < 0.05): 82.3 ± 2.7%
- Rate of recovery of the interdigit distance ([2]; 23rd day, 30 mg/kg ip once a day, saline 71.1 ± 3.4, *P < 0.05): 85.4 ± 4.1%
- Rate of recovery of the interdigit distance ([2]; 23rd day, 100 mg/kg ip once a day, saline 71.1 ± 3.4): 77.3 ± 6.0%
- Rate of recovery in muscle weight ([2]; 23rd day, 3 mg/kg ip, *P < 0.05): 58.0 ± 2.0%
- Rate of recovery in muscle weight ([2]; 23rd day, 10 mg/kg ip, *P < 0.05): 59.4 ± 2.2%
- Rate of recovery in muscle weight ([2]; 23rd day, 30 mg/kg ip, *P < 0.05): 59.3 ± 2.7%
- Rate of recovery in muscle weight ([2]; 23rd day, 100 mg/kg ip, *P < 0.05): 63.9 ± 3.5%
- Average of the proportions [3, 8]: 27.73%
- Average of the proportions [3, 9]: 25.05%

Structure (SMILES): CN1Cc2nc(N3CCNCC3)ncc2C1=O [Compound 604]
- Length of neurites (mean ± S.D.) ([1]; Table 1, Run No. 6 by footnote, 1 μg/ml, control 42.48 ± 19.64, all *P <0.01): 58.88 ± 22.72 μm/cell
- Number of neurites/cell (mean ± S.D.) ([1]; Table 1, second control group (Run No. 6 by footnote), 1 μg/ml, control 1.79 ± 0.80): 2.23 ± 0.81 neurites/cell
- Number of neurites/cell (mean ± S.D.) [1, 4]: 2.29 ± 0.77 neurites/cell
- Number of cells (mean ± S.E.) ([1]; Table 1 Run No. 2, 1 μg/ml): 14.41 ± 2.98 × 10^4 /dish
- Length of neurites (mean ± S.D.) [1, 5]: 76.30 ± 51.49 μm/cell
- Number of neurites/cell (mean ± S.D.) [1, 6]: 2.27 ± 0.62 neurites/cell
- Number of cells (mean ± S.E.) ([1]; Table 1 Run No. 2, 10 μg/ml): 11.85 ± 1.36 × 10^4 /dish
- Length of neurites (mean ± S.D.) [1, 7]: 72.06 ± 42.79 μm/cell
- Average of the proportions [3, 8]: 19.86%
- Average of the proportions [3, 9]: 17.20%
- Average of the proportions ([3]; Table 2 neuro-2a Run No. 3, 0.01 μg/ml, control 2.0): 10.7%
- Average of the proportions ([3]; Table 2 neuro-2a Run No. 3, 0.1 μg/ml, control 2.0): 16.50%
- Average of the proportions ([3]; Table 2 neuro-2a Run No. 3, 1 μg/ml, control 2.0): 11.25%
